Results from patent publication US4424373A, “Secalonic acids” (priority 1979, dated 1984).
≈ marks a conversion by molar mass, not a printed value.

Assays:
[1] = tested on: Trichophyton mentagrophytes IAM 8051; test: MIC against Trichophyton mentagrophytes IAM 8051 (Table 6); format: cell-based; details: IAM8051
Sarcina lutea ATCC 9341 = test: MIC against Sarcina lutea ATCC 9341 (Table 6); format: cell-based; details: Micrococcus luteus, ATCC9341
[2] = tested on: Micrococcus flavis ATCC 10240; test: MIC against Micrococcus flavis ATCC 10240 (Table 6); format: cell-based; details: ATCC10240
[3] = tested on: Corynebacterium diphtheriae P.W.8; test: MIC against Corynebacterium diphtheriae P.W.8 (Table 6); format: cell-based
Bacilus subtilis CPI 219 = test: MIC against Bacilus subtilis CPI 219 (Table 6); format: cell-based

Compound	MIC [1] [µg/mL]	MIC (Sarcina lutea ATCC 9341) [µg/mL]	MIC [2] [µg/mL]	MIC [3] [µg/mL]	MIC (Bacilus subtilis CPI 219) [µg/mL]	solubility in chloroform
COC(=O)C12Oc3ccc(-c4ccc(O)c5c4OC4(C(=O)OC)C(=C(O)CC(C)C4O)C5=O)c(O)c3C(=O)C1=C(O)CC(C)C2O (centres unmarked) [2,4'-SD, secalonic acid D having a 2,4'-linkage]	3.1 (≈ 4.85 µM)	12.5 (≈ 19.6 µM)	25 (≈ 39.1 µM)	12.5 (≈ 19.6 µM)	50 (≈ 78.3 µM)	
COC(=O)C12Oc3ccc(-c4ccc5c(c4O)C(=O)C4=C(O)CC(C)C(O)C4(C(=O)OC)O5)c(O)c3C(=O)C1=C(O)CC(C)C2O (single isomer, unassigned) [Compound I, secalonic acid A having a 2,2'-linkage, reference compound]						insoluble
COC(=O)C12Oc3c(-c4ccc(O)c5c4OC4(C(=O)OC)C(=C(O)CC(C)C4O)C5=O)ccc(O)c3C(=O)C1=C(O)CC(C)C2O (centres unmarked) [4,4'-SD, secalonic acid D having a 4,4'-linkage]	1.6 (≈ 2.51 µM)	3.1 (≈ 4.85 µM)	12.5 (≈ 19.6 µM)	6.3 (≈ 9.87 µM)	12.5 (≈ 19.6 µM)	
COC(=O)[C@]12Oc3ccc(-c4ccc5c(c4O)C(=O)C4=C(O)C[C@@H](C)[C@H](OC=O)[C@@]4(C(=O)OC)O5)c(O)c3C(=O)C1=C(O)C[C@@H](C)[C@@H]2OC=O [diformyl derivative of Compound I, diformyl derivative of secalonic acid A having a 2,2'-linkage]						soluble
COC(=O)C12Oc3ccc(-c4ccc5c(c4O)C(=O)C4=C(O)CC(C)C(O)C4(C(=O)OC)O5)c(O)c3C(=O)C1=C(O)CC(C)C2O (centres unmarked) [2,2'-SD, secalonic acid D having a 2,2'-linkage, reference compound]	12.5 (≈ 19.6 µM)	> 100	100 (≈ 157 µM)	50 (≈ 78.3 µM)	> 100	
